For orientation: IC50 means the concentration that gives 50% inhibition.

For experiment [1], the target named is T1, Stromelysin-2 (Homo sapiens, UniProt P09238). Briefly: Inhibition of MMP-10 (unknown origin).
Experiment [2] addresses T1, Stromelysin-2. Briefly: Inhibition of MMP10 (unknown origin) using FRET peptide.

T1 sequence (P09238 whole entry): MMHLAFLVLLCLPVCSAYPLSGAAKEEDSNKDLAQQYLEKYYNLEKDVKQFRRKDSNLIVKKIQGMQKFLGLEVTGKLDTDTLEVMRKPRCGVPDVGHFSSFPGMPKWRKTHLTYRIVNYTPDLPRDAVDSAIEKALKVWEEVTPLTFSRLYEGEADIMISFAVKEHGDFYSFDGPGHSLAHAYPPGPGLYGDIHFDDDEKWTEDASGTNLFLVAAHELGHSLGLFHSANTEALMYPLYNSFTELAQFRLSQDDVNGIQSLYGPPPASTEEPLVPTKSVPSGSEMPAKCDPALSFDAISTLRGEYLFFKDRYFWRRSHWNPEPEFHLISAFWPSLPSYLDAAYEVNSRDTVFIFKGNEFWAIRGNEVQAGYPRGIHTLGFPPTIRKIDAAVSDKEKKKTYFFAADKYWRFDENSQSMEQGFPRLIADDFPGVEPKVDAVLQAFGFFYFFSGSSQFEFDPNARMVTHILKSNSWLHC

On Stromelysin-2 [1], `CC(=O)N1c2nc(C)cc(=O)n2[C@H](c2ccc(Br)cc2)N1C(C)=O` showed a half-inhibitory concentration (IC50) of 24 nM.
`O=C(O)CCCCCCCCOc1ccc(CC(=O)Nc2ccc3c(c2)C(=O)N(Cc2ccccc2)C3=O)cc1` displayed a concentration for half-maximal inhibition (IC50) against Stromelysin-2 [2] of 1200 nM.

For the origin of these results see ChEMBL document CHEMBL5241089, “Matrix metalloproteinases inhibitors in idiopathic pulmonary fibrosis: Medicinal chemistry perspectives” (Eur J Med Chem, 2021).
